{"source": "patent US11684667B2", "about": "(priority 2017, dated 2023)", "key": {"BMDMs [1]": {"system": "BMDMs", "type": "cell-based, mouse", "settings": "N15m1-infected BMDMs, MOI 0.1, 18 hpi; zVAD 20 μM, C16 1 μM", "protocol": "Bioanalyzer RNA analysis. Equal amounts of total RNA purified from BMDMs were analyzed on an Agilent 2100 Bioanalyzer using RNA Nano LabChips."}, "BMDMs [2]": {"system": "BMDMs", "type": "cell-based, mouse", "settings": "zVAD 20 μM", "protocol": "Cell death assays. Cell viability and Caspase 3/7 activity were measured using CellTiter Glo (G7571, Promega) or CaspaseGlo 3/7 (G8091, Promega) respectively, according to the manufacturer's protocol, with modification.\nCell death assays. Cell viability and Caspase 3/7 activity were measured using CellTiter Glo (G7571, Promega) or CaspaseGlo 3/7 (G8091, Promega) respectively, according to the manufacturer's protocol, with modification. Briefly, 3.0×10^5 BMDMs/well were plated in 24-well plates and infected at an MOI of 0.1 for 1 h in serum-free media. Media was replaced with complete media, or for addition of chemical inhibitors, viral inoculum was replaced with completed BMM media containing indicated concentration of inhibitors. Infected BMDMs were incubated for 24h at 37° C./5% CO2. BMDMs were washed twice with 1×PBS and lysed with 100 μL Glo reagent/medium mixture (1:1). 50 μL of cell lysate was used for measuring the luminescence signal. Standard deviation and unpaired t test were performed on technical triplicates and data are representative of three independent experiments. Graphs of cell viability were generated using Prism 7 software (GraphPad Software, Inc.)."}}}
{"substance": "zVAD", "values": [{"measurement": "effect of inhibitor on degradation of host rRNA", "setting": "BMDMs [1]", "value": "not inhibited"}, {"measurement": "prevention of virus-induced cell death by inhibitor", "setting": "BMDMs [2]; N15m1-infected BMDMs, 24 hpi, Nec-1 25 μM, VX-765 20 μM", "value": "prevented virus-induced cell death"}, {"measurement": "effect of inhibitor on caspase 3/7 activation in N15m1-infected BMDMs", "setting": "BMDMs [2]; C16 1 μM", "value": "inhibited by zVAD"}]}
